Source: US20160015638A1, “STABLE GLUCOKINASE ACTIVATOR COMPOSITIONS” (vTv Therapeutics LLC, priority 2013, published 2016)

Columns and labels:
[1] = Biopharmaceutics Classification System (BCS) classification; type: physicochemical
Excerpt: As a result, Class IV drugs have poor bioavailability and are usually not well-absorbed while having high variability. Preparing a stable, bioavailable composition containing {2-[3-cyclohexyl-3-(trans-4-propoxy-cyclohexyl)-ureido]-thiazol-5-ylsulfanyl}-acetic acid or a pharmaceutically acceptable salt thereof is, however, not straight forward.

[2] = X-ray powder diffraction (XRPD) crystal structure before and after processing; type: physicochemical
Excerpt: The crystal structure of {2-[3-cyclohexyl-3-(trans-4-propoxy-cyclohexyl)-ureido]-thiazol-5-ylsulfanyl}-acetic acid was not changed during nanosizing.
The crystal structure of {2-[3-cyclohexyl-3-(trans-4-propoxy-cyclohexyl)-ureido]-thiazol-5-ylsulfanyl}-acetic acid was not changed during spray drying.

[3] = test system: insulin secretion by the pancreas; details: in the presence of glucose; cited from earlier work

**Q.** With `CCCO[C@H]1CC[C@H](N(C(=O)Nc2ncc(SCC(=O)O)s2)C2CCCCC2)CC1` [{2-[3-cyclohexyl-3-(trans-4-propoxy-cyclohexyl)-ureido]-thiazol-5-ylsulfanyl}-acetic acid] as the molecule, how does the “Biopharmaceutics Classification System (BCS) class” value [1] read?
**A.** The value was “Class IV”.

**Q.** What about the solubility ([1]; BCS classification) of the same molecule?
**A.** Its solubility is “low solubility”.

**Q.** What about the “crystal structure (XRPD)” value ([2]; during nanosizing by microfluidization, lyophilized suspension) of the same molecule?
**A.** The value was “not changed”.

**Q.** What about the “crystal structure (XRPD)” value ([2]; during spray drying) of the same molecule?
**A.** The value was “not changed”.

**Q.** What about the “insulin secretion by the pancreas” value [3] of the same molecule?
**A.** The value was “does not increase insulin secretion”.
